Key:
[1] = Clearance in Cynomolgus monkey at 1 mg/kg, iv by LC-MS/MS analysis; type: ADME, organism-based, Macaca fascicularis; settings: in vivo
[2] = Plasma protein binding in dog; type: ADME, cell-free, Canis lupus familiaris; settings: read-out: PPB (converted)
[3] = Tmax in CD-1 mouse at 5 mg/kg, po by LC-MS/MS analysis; type: ADME, organism-based; settings: in vivo
[4] = target: Cytochrome P450 2C19 (Homo sapiens, UniProt P33261); experiment: Inhibition of human CYP2C19; type: ADME
[5] = system: Salmonella typhimurium; experiment: Mutagenicity in Salmonella Typhimurium using Aroclor 1254 induced rat liver S9 fraction by […] assay; type: toxicity, organism-based; settings: salmonella enterica subsp. enterica serovar typhimurium
[6] = Toxicity in rat assessed as histological changes in stomach at 500 mg/kg/day; type: organism-based; settings: in vivo
[7] = Permeability of the compound at pH 7.4 by PAMPA assay; type: ADME; settings: read-out: permeability
[8] = system: Salmonella typhimurium; experiment: Genotoxicity in Salmonella typhimurium TA102 by Ames test; type: toxicity, organism-based; settings: salmonella enterica subsp. enterica serovar typhimurium
[9] = Toxicity in dog assessed as fecal change at upto 300 mg/kg, po administered as single dose; type: organism-based, Canis lupus familiaris; settings: in vivo
[10] = Cmax in cynomolgus monkey at 2 mg/kg, po by LC-MS/MS analysis; type: ADME, organism-based, Macaca fascicularis; set-up: route oral, dose 2 mg/kg; settings: in vivo
[11] = Oral bioavailability in Sprague-Dawley rat at 5 mg/kg by LC-MS/MS analysis; type: ADME, organism-based; settings: in vivo
[12] = Elimination half life in Sprague-Dawley rat at 1 mg/kg, iv by LC-MS/MS analysis; type: ADME, organism-based; settings: in vivo, read-out: beta t1/2 (converted)
[13] = Cardiotoxicity in dog heart assessed as increase in heart rate at 300 mg/kg; type: toxicity, organism-based, Canis lupus familiaris; settings: in vivo
[14] = system: Human immunodeficiency virus 1; experiment: Antiviral activity against recombinant HIV1 NLRep-Rluc harbouring polymorphic NA infected in human MT-2 cells assessed as inhibition of virus growth in presence of fetal bovine serum by measuring luciferase activity after 5 days; type: functional, organism-based; settings: Human immunodeficiency virus 1, NLRep, MT2, 120 h
[15] = system: UGT; experiment: Metabolic stability assessed as monkey UGT-mediated metabolism by measuring half life by phase II UGT conjugation assay; type: ADME, Macaca mulatta; settings: rhesus monkey
[16] = system: sodium channel; experiment: Inhibition of sodium channel (unknown origin) at 10 uM; type: toxicity; settings: human
[17] = Cytotoxicity against human MT2 cells assessed as cell viability measured after 4 days by XTT assay; type: toxicity, cell-based; settings: time 4 day
[18] = system: Human immunodeficiency virus 1; experiment: Antiviral activity against recombinant HIV1 A128T-resitant mutant […] infected in human MT-2 cells assessed as inhibition of virus growth in presence of fetal bovine serum by measuring luciferase activity after 5 days; type: functional, organism-based; settings: Human immunodeficiency virus 1, MT2, 120 h
[19] = target: L-type calcium channel (Homo sapiens, UniProt O60840+Q01668+Q13698+Q13936); experiment: Inhibition of calcium channel, Type L (unknown origin) at 10 uM; type: toxicity
[20] = Toxicity in rat assessed as lipidosis at 500 mg/kg/day; type: organism-based; settings: in vivo
[21] = Volume of distribution at steady state in Beagle dog at 1 mg/kg, iv by LC-MS/MS analysis; type: ADME, organism-based, Canis lupus familiaris; settings: in vivo, read-out: Vdss
[22] = target: Cytochrome P450 2D6 (Homo sapiens, UniProt P10635); experiment: Inhibition of human CYP2D6; type: ADME
[23] = Elimination half life in Beagle dog at 1 mg/kg, iv by LC-MS/MS analysis; type: ADME, organism-based, Canis lupus familiaris; settings: in vivo, read-out: beta t1/2 (converted)
[24] = system: Human immunodeficiency virus 1; experiment: Antiviral activity against recombinant HIV1 NLRep-Rluc harbouring polymorphic T124/T125 integrase infected in human MT-2 cells assessed as inhibition of virus growth in presence of fetal bovine serum by measuring luciferase activity after 5 days; type: functional, organism-based, MT2; settings: Human immunodeficiency virus 1, NLRep, MT2, 120 h
[25] = Plasma protein binding in human; type: ADME, cell-free; settings: read-out: PPB (converted)
[26] = Toxicity in rat assessed as histological changes in thymus at 500 mg/kg/day; type: organism-based; settings: in vivo
[27] = Toxicity in rat assessed as distended stomach at 500 mg/kg/day; type: organism-based; settings: in vivo
[28] = target: Voltage-gated inwardly rectifying potassium channel KCNH2 (Homo sapiens, UniProt Q12809); experiment: Inhibition of hERG; type: toxicity
[29] = AUC in CD-1 mouse at 5 mg/kg, po by LC-MS/MS analysis; type: ADME, organism-based; set-up: dose 5 mg/kg; settings: in vivo
[30] = Toxicity in rat assessed as histological changes in adrenal gland at 500 mg/kg/day; type: organism-based; settings: in vivo
[31] = Tmax in cynomolgus monkey at 2 mg/kg, po by LC-MS/MS analysis; type: ADME, organism-based, Macaca fascicularis; settings: in vivo
[32] = Cmax in CD-1 mouse at 5 mg/kg, po by LC-MS/MS analysis; type: ADME, organism-based; set-up: route oral, dose 5 mg/kg; settings: in vivo
[33] = Metabolic stability in rat liver microsome assessed half life at 0.5 uM by LC-MS/MS analysis; type: ADME; settings: liver microsomes
[34] = AUC in Sprague-Dawley rat at 5 mg/kg, po by LC-MS/MS analysis; type: ADME, organism-based; set-up: dose 5 mg/kg; settings: in vivo
[35] = Oral bioavailability in cynomolgus monkey at 2 mg/kg by LC-MS/MS analysis; type: ADME, organism-based, Macaca fascicularis; settings: in vivo
[36] = Solubility of the compound using amorphous form of sample; type: physicochemical
[37] = Toxicity in rat assessed as vacuolation of kidney at 500 mg/kg/day; type: organism-based; settings: in vivo
[38] = Clearance in CD-1 mouse at 1 mg/kg, iv by LC-MS/MS analysis; type: ADME, organism-based; settings: in vivo
[39] = Volume of distribution at steady state in Sprague-Dawley rat at 1 mg/kg, iv by LC-MS/MS analysis; type: ADME, organism-based; settings: in vivo, read-out: Vdss
[40] = target: T1, Cytochrome P450 2C8 (Homo sapiens, UniProt P10632); experiment: Inhibition of human CYP2C8; type: ADME
T1 sequence (P10632 whole entry): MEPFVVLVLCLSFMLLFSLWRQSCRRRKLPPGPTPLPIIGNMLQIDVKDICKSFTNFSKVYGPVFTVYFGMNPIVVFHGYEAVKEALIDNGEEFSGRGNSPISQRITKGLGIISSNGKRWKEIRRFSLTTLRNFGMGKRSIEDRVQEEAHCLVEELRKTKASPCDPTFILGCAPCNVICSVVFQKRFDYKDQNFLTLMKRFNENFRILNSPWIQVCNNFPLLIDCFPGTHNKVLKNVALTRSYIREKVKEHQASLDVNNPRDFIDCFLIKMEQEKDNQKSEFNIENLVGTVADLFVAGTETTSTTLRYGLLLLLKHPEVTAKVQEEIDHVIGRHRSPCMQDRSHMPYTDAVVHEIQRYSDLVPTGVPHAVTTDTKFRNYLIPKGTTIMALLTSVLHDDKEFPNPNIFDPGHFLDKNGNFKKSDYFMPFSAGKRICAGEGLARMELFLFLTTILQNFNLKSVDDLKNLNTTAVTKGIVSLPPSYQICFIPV

[41] = Volume of distribution at steady state in CD-1 mouse at 1 mg/kg, iv by LC-MS/MS analysis; type: ADME, organism-based; settings: in vivo, read-out: Vdss
[42] = Volume of distribution at steady state in Cynomolgus monkey at 1 mg/kg, iv by LC-MS/MS analysis; type: ADME, organism-based, Macaca fascicularis; settings: in vivo, read-out: Vdss
[43] = Cmax in Beagle dog at 2 mg/kg, po by LC-MS/MS analysis; type: ADME, organism-based, Canis lupus familiaris; set-up: route oral, dose 2 mg/kg; settings: in vivo
[44] = Clearance in Sprague-Dawley rat at 1 mg/kg, iv by LC-MS/MS analysis; type: ADME, organism-based; settings: in vivo

Sequence of Voltage-gated inwardly rectifying potassium channel KCNH2 (Q12809 whole entry): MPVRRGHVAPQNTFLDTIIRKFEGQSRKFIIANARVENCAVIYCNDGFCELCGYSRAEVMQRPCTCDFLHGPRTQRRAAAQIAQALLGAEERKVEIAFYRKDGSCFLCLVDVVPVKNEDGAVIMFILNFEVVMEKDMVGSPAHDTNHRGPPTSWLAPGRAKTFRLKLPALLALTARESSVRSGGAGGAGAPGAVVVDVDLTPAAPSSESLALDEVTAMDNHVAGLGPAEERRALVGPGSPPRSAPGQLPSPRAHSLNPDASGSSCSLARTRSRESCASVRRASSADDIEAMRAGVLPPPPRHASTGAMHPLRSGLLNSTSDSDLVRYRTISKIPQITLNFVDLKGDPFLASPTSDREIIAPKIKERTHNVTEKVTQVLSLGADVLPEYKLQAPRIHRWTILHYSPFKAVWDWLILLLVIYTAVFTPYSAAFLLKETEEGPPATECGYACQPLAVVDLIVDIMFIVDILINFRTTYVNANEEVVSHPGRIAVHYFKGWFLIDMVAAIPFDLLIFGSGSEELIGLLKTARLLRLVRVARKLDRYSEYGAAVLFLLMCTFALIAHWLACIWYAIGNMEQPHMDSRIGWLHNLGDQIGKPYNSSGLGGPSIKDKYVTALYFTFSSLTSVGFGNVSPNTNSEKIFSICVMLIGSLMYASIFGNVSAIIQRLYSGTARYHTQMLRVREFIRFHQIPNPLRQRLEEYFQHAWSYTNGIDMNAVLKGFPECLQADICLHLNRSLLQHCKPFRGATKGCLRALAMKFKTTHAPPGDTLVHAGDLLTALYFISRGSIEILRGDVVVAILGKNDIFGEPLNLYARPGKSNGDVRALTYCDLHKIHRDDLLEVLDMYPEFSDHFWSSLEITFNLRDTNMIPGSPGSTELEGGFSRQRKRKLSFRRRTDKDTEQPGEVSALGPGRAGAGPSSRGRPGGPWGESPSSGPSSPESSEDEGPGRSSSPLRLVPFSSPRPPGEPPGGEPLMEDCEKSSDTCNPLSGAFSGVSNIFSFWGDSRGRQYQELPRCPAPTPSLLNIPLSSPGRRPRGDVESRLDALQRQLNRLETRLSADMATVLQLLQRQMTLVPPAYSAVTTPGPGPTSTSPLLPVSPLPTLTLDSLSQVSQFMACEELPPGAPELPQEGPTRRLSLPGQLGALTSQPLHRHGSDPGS
Sequence of Cytochrome P450 2C19 (P33261 whole entry): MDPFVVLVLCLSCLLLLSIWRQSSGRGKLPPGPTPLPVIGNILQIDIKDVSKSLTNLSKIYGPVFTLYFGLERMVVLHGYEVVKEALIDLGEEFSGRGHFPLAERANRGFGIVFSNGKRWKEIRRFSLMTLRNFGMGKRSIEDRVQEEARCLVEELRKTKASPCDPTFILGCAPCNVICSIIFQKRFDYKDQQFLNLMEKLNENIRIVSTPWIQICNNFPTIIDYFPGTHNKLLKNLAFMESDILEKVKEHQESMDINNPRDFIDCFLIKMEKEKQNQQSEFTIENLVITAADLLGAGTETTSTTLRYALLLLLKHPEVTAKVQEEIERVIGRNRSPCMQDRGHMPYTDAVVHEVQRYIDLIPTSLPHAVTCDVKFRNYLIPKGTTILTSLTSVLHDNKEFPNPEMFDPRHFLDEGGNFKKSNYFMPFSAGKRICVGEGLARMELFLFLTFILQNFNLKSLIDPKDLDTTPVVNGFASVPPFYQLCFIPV
Sequence of Cytochrome P450 2D6 (P10635 whole entry): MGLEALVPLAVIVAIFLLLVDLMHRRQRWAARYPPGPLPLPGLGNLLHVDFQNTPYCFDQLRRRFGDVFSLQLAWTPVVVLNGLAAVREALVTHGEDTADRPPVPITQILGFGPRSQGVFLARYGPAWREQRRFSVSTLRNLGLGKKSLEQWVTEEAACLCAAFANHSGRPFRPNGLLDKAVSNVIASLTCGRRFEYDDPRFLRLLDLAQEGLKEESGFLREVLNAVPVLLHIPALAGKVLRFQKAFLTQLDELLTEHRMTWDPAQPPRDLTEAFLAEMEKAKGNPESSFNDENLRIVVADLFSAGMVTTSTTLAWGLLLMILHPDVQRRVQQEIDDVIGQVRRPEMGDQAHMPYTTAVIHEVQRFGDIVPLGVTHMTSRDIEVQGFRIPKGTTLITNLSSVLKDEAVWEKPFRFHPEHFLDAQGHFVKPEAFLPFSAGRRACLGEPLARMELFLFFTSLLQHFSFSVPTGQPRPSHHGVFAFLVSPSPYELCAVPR

Cc1nc(C)c([C@H](OC(C)(C)C)C(=O)O)c(N2CCC(C)(C)CC2)c1-c1ccc(OCCc2ccc(F)cc2)cc1
clearance [1]: 14.5 mL/min/kg
fraction unbound [2]: 0.13
Tmax [3]: 5 h
IC50 [4]: ≥ 24300 nM
Activity [5]: Non-Toxic
Activity [6]: Toxic
Papp [7]: 50.5 ×10⁻⁶ cm/s
Activity [8]: Non-Toxic
Activity [9]: Toxic
Cmax [10]: 525 nM
bioavailability [11]: 52%
half-life [12]: 4.3 h
Activity [13]: 15%
EC50 [14]: 3.8 nM
half-life [15]: ≥ 2 h
inhibition at 10 µM [16]: 79%
CC50 at 96 h [17]: ≥ 33500 nM
EC50 [18]: 363 nM
inhibition at 10 µM [19]: 96%
Activity [20]: Toxic
Vd [21]: 0.7 L/kg
IC50 [22]: ≥ 24300 nM
half-life [23]: 5.1 h
EC50 [24]: 1.7 nM
fraction unbound [25]: 0.2
Activity [26]: Toxic
Activity [27]: Toxic
IC50 [28]: 670 nM
AUC [29]: 24.5 µM·h
Activity [30]: Toxic
Tmax [31]: 2 h
Cmax [32]: 2360 nM
half-life at 0.5 µM [33]: > 2 h
AUC [34]: 14 µM·h
bioavailability [35]: 54%
solubility [36]: < 1 µg/mL
Activity [37]: Toxic
clearance [38]: 5.4 mL/min/kg
Vd [39]: 0.8 L/kg
IC50 [40]: ≥ 24300 nM
Vd [41]: 2.4 L/kg
Vd [42]: 1.5 L/kg
Cmax [43]: 2960 nM
clearance [44]: 5.5 mL/min/kg
